Measured values as given in patent publication US5773438A, “Synthetic matrix metalloprotease inhibitors and use thereof” (Glycomed Incorporated, priority 1994, dated 1998).
pKi: −log10 of the molar value.

Legend:
[1] = target: T1, human skin fibroblast collagenase (Homo sapiens, UniProt P03956); assay: inhibition of collagenase, synthetic thiol ester substrate, Ki (Table 1); assay type: biochemical
T1 construct: endogenous in cells; host or cells: human skin fibroblasts
T1 sequence (P03956 100-469): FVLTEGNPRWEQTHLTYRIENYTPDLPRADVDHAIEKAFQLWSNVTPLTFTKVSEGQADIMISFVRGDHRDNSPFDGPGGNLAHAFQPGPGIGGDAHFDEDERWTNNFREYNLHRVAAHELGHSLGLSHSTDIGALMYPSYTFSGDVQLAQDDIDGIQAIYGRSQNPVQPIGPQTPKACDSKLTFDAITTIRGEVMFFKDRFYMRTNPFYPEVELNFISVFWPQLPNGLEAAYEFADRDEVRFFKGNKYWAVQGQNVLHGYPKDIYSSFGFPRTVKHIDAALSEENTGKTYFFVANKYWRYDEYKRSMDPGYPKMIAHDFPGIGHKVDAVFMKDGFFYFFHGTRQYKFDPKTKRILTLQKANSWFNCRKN
Protocol: Specifically, assay of inhibition activity can be conducted as follows. Inhibitors may be assayed against crude or purified human skin fibroblast collagenase, or purified human gingival fibroblast collagenase using the synthetic thiol ester substrate at pH 6.5 exactly as described by Kortylewicz & Galardy, J Med Chem (1990) 33:263-273, at a collagenase concentration of 1-2 nM. The candidate inhibitors are tested for their ability to inhibit crude collagenase and gelatinase from human skin fibroblasts, crude collagenase and gelatinase from purulent human neutrophils in this assay.

[2] = target: Recombinant neutrophil collagenase (Homo sapiens, UniProt P22894); assay: inhibition of recombinant neutrophil collagenase (Table 2); assay type: biochemical; details: read-out: NC inhibitory activity
Chain of Recombinant neutrophil collagenase (P22894 101-467): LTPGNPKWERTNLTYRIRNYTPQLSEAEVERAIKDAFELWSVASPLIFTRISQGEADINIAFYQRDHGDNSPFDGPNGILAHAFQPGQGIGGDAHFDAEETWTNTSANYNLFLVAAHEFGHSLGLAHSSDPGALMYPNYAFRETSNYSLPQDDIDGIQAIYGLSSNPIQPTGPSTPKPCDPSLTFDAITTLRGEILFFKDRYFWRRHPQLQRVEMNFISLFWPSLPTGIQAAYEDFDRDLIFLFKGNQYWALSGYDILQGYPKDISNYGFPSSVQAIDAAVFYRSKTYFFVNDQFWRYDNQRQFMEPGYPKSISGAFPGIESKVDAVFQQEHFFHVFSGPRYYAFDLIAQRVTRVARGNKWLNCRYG
Protocol: (§1) Specifically, assay of inhibition activity can be conducted as follows. […] Assays for inhibition of human stromelysin are conducted as described by Teahan, J., et al., Biochemistry (1989) 20:8497-8501.
(§2) Assay of inhibition activity can be conducted using a fluorogenic substrate developed by Knight et al., FEBS Letters (1992) 296:263. This method uses a fluorometer to determine the rate of substrate hydrolysis in a 96 well plate format. Reaction rates are determined at several substrate concentrations, and multiple inhibitor levels. The data are analyzed by Lineweaver-Burk, Dixon and Henderson plot analyses (Enzyme Kinetics (1975) Irwin Segal (John Wiley & Sons, Inc., publishers), and as described by Henderson, Biochem J. (1972) 127:321). The substrate levels range from 10-30μM. […] Inhibitors may be assayed against purified 72 kD gelatinase, 92 kD gelatinase, neutrophil collagenase, stromelysin or other proteases as appropriate. The enzymes are activated at 37° C. with APMA (4-aminophenylmercuric acetate), and the assays are carried out at room temperature.

Stromelysin = Stromelysin (Homo sapiens, UniProt P08254); assay: inhibition of stromelysin (Table 2); assay type: biochemical; details: read-out: Strom inhibitory activity
Chain of Stromelysin (P08254 100-477): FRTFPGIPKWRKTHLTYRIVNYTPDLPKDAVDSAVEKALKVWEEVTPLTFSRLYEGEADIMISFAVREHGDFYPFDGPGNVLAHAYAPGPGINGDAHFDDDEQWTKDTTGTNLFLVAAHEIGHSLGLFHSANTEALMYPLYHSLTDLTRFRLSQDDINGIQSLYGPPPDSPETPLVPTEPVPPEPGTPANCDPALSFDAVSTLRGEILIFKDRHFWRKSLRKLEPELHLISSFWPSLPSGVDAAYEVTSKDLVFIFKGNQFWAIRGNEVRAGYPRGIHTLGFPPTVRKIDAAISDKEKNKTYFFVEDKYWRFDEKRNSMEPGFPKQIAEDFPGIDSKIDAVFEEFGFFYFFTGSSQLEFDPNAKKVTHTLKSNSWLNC
Protocol: as §1, §2

[3] = target: T2, Natural human 72kD gelatinase (Homo sapiens, UniProt P08253); assay: inhibition of 72kD gelatinase (Table 2); assay type: biochemical; details: read-out: 72kD G inhibitory activity
T2 sequence (P08253 110-660): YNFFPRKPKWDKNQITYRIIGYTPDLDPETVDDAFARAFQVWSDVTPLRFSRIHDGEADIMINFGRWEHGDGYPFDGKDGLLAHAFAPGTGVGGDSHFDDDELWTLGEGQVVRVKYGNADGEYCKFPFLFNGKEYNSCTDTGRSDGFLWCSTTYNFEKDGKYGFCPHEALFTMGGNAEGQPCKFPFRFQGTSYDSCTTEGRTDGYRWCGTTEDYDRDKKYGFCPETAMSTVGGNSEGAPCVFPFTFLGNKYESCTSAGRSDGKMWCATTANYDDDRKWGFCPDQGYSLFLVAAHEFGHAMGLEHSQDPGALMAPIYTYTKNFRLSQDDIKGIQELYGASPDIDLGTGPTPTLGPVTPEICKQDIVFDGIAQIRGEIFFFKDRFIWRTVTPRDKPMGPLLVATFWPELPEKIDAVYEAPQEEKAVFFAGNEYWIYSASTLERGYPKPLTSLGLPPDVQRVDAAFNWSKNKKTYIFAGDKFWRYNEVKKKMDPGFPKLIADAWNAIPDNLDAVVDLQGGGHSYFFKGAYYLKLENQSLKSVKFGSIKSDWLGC
Protocol: as §1, §2

[4] = target: T3, Human gingival fibrblast collagenase (Homo sapiens, UniProt P03956); assay: inhibition of human gingival fibroblast collagenase (Table 2); assay type: biochemical; details: read-out: HGFC inhibitory activity
T3 construct: endogenous in cells; host or cells: human gingival fibroblasts
T3 sequence (P03956 100-469): T1 sequence (P03956 100-469)
Protocol: as §1, §2

[5] = tested on: protease activity of chronic wound fluid; assay: Azocoll assay of protease activity in chronic wound fluid; assay type: biochemical, human; details: FIG. 7; for inhibition of protease activity of chronic wound fluid: highest concentration (800 μg/ml)
Protocol: Fluids were collected from 3 types of human wounds termed closed spontaneously healing wounds, open slowly healing wounds, and open chronic wounds. In the first category were fluids collected from the chest wall of women following mastectomy surgery. Fluids from non-infected wounds that were left open for valid surgical reasons were considered open slowly healing wounds. An occlusive dressing was placed over the wound bed, and fluids were collected after 2-6 hours of occlusion. Finally, fluids were also collected from chronic open wounds by covering the wounds with occlusive dressings. Wounds were considered to be chronic if they were not clinically infected and had been open and not healing for more than 4 weeks.
The various wound fluids were assayed for matrix metalloproteinase activity using the Azocoll assay essentially as described by Chavira, et al., Analytic Biochemistry (1984), 136:446.
The fluids were centrifuged, and the supernatants filtered using a 0.45μ sterile Gelman filter. The filtrates were stored frozen at -80° C. until tested for protease activity.
The effects of four inhibitors on the protease activity present in wound fluids were determined. The inhibitors were: compounds
Stock solutions of the four inhibitors were all prepared at a concentration of 800 μg/ml. Due to different solubility properties of the inhibitors, different techniques were utilized. […] S1209 was dissolved in 1% DMSO then dissolved in 10 mM citrate, pH 5.5, containing 0.05% methyl cellulose. 39A was dissolved in propylene glycol (to give a final concentration of 2.4%) then dissolved in 1 mM CaCl2, 50 mM Tris-Cl, pH 7.8. 21A was dissolved in propylene glycol (2.4%) methyl cellulose (0.05%) and 10 mM citrate, pH 8.
The protease substrate, Azocoll, was obtained from Sigma Chemical Corporation and it is a substrate for collagenase/gelatinase-like metalloproteinase enzymes and general proteases. Clostridium histolyticum collagenase (the crude form of the enzyme) was from Worthington Biochemicals. General chemicals including TRIS buffer, DMSO, and CaCl2 were from Sigma Chemical Corporation.
Briefly, 900 μl of the Azocoll substrate suspension in buffer ([…] in 50 mM TRIS, pH 7.8, 1 mM CaCl2) was added to 1.5 ml microcentrifuge tubes then 50 μl of inhibitor (or buffer) and 50 μl of chronic wound fluid (or collagenase standard) were added to the reaction tube. The reaction tubes were placed at 37° C. in a shaker that inverted the tubes 30 times per minute. After 24 hours of incubation, the reaction tubes were centrifuges at 10,000 X g and the absorbance of the supernatant solution was measured at 520 nm with a Milton-Roy spectrophotometer. Proteolysis of Azocoll substrate generates soluble colored fragments from the insoluble Azocoll substrate. Wound fluid samples were incubated alone or with the inhibitors. Controls included incubation of the Azocoll substrate with the assay buffer to measure spontaneous degradation of the substrate. A standard curve for digestion of the Azocoll substrate was generated by incubation of the Azocoll with crude bacterial collagenase. Protease levels were expressed as net μg of collagenase equivalent per ml of chronic wound fluid. In the figures, certain of the wound fluids are referred to by an individual name.
For these experiments, due to the different solubility properties of the inhibitors, different techniques were utilized. […] S1209 was dissolved in 1% DMSO then dissolved in 10 mM citrate, pH 5.5, containing 0.05% methyl cellulose. 39A was dissolved in propylene glycol (to give a final concentration of 2.4%) then dissolved in 1 mM CaCl2, […] Tris-Cl, pH 7.8. 21A was dissolved in propylene glycol (2.4%) methyl cellulose (0.05%) and 10 mM citrate, pH 8.

[6] = tested on: PdiBu-Induced Epidermal Hyperplasia; assay: PdiBu-induced epidermal hyperplasia mouse model (psoriasis); assay type: in vivo, hairless mice; details: topical
Protocol: The phorbol ester, PdiBu (20 nmol in 20 μl if acetone) was applied to both ears of hairless mice (h/h) (approximately 1 cm^2 each). The test compounds (in total volume of 20 μl) were then applied to the right ear immediately (15 to 30 min) following PdiBu. The left ear of each animal received an equivalent amount (20 μl) of vehicle. Test compounds (and vehicle) were reapplied at 6 and 18 hours following PdiBu. Treatment times were staggered to allow exact time intervals to be obtained. At 30 hours after PdiBu, animals were anesthetized, and ear thickness values were obtained using a microcaliper. The weights of punch biopsies (6mm) were then obtained. Histology was performed on selected samples taken at 30 hours.
Left ear in each animal served as vehicle-treated controls (PdiBu+ETOH). Thus, the controls for this series include: 1) Untreated controls; 2) PdiBu plus vehicle alone (included for each mouse tested); 3) PdiBu plus AHA; 4) PdiBu plus Lidex® as a positive control.

Row | Compound | pKi [1] | pKi [4] | also measured
1 | CNC(=O)[C@H](Cc1c[nH]c2ccccc12)NC(=O)C1CCCCC1C(=O)NO (mixture of isomers) [29A,B, N-[(±)cis-2-(N'-hydroxyamidocarbonyl)-cyclohexylcarbonyl]-L-tryptophan methylamide] | < 5.00 |  | 
2 | CNC(=O)[C@H](Cc1c[nH]c2ccccc12)N(C)C(=O)C(CC(=O)NO)CC(C)C (single isomer, unassigned) [Compound 9A, N-[2-isobutyl-3-(N'-hydroxyamidocarbonyl)-propanoyl]-N-methyl-L-tryptophanmethylamide] | 6.30 | 8.30 | pKi [2]: 7.54; pKi (Stromelysin): < 6.00; pKi [3]: 7.49
3 | CNC(=O)[C@H](Cc1ccc2ccccc2c1)NC(=O)C(CC(=O)NO)CC(C)C (single isomer, unassigned) [Compound 11A, N-[2-isobutyl-3-(N-hydroxyamidocarbonyl)-propanoyl]-L-3-(2-naphthyl)-alanine methylamide] | 7.82 | 9.52 | 
4 | CC(C)CC(CC(=O)NO)C(=O)N[C@@H](Cc1c[nH]c2ccccc12)C(=O)NCCO (single isomer, unassigned) [Compound 13A, N-[2-isobutyl-3-(N'-hydroxyamidocarbonyl)-propanoyl]-L-tryptophan 2-hydroxyethylamide] | 7.70 | 9.00 | 
5 | COC(=O)CC(CC(C)C)C(=O)N[C@@H](Cc1c[nH]c2ccccc12)C(=O)N[C@@H](C)c1ccccc1 (single isomer, unassigned) [Compound 20A] |  | 9.70 | 
6 | CC(C)CC(CC(=O)NO)C(=O)N[C@@H](Cc1c[nH]c2ccccc12)C(=O)N1CCCCC1 (stereo partly drawn) [17A,B, N-[2-isobutyl-3-(N'-hydroxyamidocarbonyl)-propanoyl]-L-tryptophan piperidinamide] | 6.70 |  | 
7 | CNC(=O)[C@H](Cc1c[nH]c2ccccc12)NC(=O)[C@H](CC(=O)NO)CC(C)C [Compound 5B, N-[D,L-2-isobutyl-3-(N'-hydroxycarbonylamido)-propanoyl]-tryptophan methylamide] |  |  | pKi (Stromelysin): < 6.00
8 | CCCCCNC(=O)[C@H](Cc1c[nH]c2ccccc12)NC(=O)C(CC(=O)NO)CC(C)C (stereo partly drawn) [Compound 15A, N-[2-isobutyl-3-(N'-hydroxyamidocarbonyl)-propanoyl]-L-tryptophan amylamide] | 7.52 | 9.52 | 
9 | CC(C)C[C@H](CC(=O)O)C(=O)N[C@@H](Cc1c[nH]c2ccccc12)C(=O)N[C@@H](C)c1ccccc1 [Compound 39A, N-(2R-2-Carboxymethyl-4-methylpentanoyl)-L-tryptophan (S)-methylbenzyl amide] |  |  | effect on proteolytic degradation of Azocoll by chronic wound fluid [5]: significantly less potent that 5A, 21A, or S1209; increase in protease activity of chronic wound fluid ([5]; 0.8 μg/ml): 30%; increase in protease activity of chronic wound fluid ([5]; 8 μg/ml): 13%; inhibition of protease activity of chronic wound fluid [5]: 23%
10 | CC(C)C[C@H](CC(=O)O)C(=O)N[C@@H](Cc1c[nH]c2ccccc12)C(=O)NCCc1ccccc1 [Compound 58, N-[2-Isobutyl-3-hydroxycarbonylpropanoyl]-L-tryptophan-2(phenyl)ethylamide] |  |  | pKi [2]: 7.59; pKi (Stromelysin): 4.98; pKi [3]: 7.10
11 | CC(C)C[C@H](CC(=O)O)C(=O)N[C@@H](Cc1c[nH]c2ccccc12)C(=O)NCCc1ccc(S(N)(=O)=O)cc1 [Compound 59] |  |  | pKi [2]: 7.07; pKi (Stromelysin): 4.42; pKi [3]: 6.58
12 | CC(=O)OCC(=O)[C@@]12OC(C)(C)O[C@@H]1C[C@H]1[C@@H]3C[C@H](F)C4=CC(=O)C=C[C@]4(C)[C@@]3(F)[C@@H](O)C[C@@]12C [Lidex, fluocinonide, reference compound] |  |  | effect on PdiBu-induced ear thickness [6]: significantly inhibited; effect on PdiBu-induced increase in punch biopsy weight [6]: significantly inhibited

Now from value to compound, other results behind:

Row | pKi [1] | pKi [4] | Compound | also measured
13 | < 5.00 |  | CNC(=O)[C@H](Cc1c[nH]c2ccccc12)NC(=O)[C@@H]1CCCC[C@@H]1C(=O)O (mixture of isomers) [Compound 35, N-[(+)cis-2-carboxy-cyclohexylcarbonyl]-L-tryptophan methylamide] | 
14 | < 5.00 |  | CNC(=O)[C@H](Cc1c[nH]c2ccccc12)NC(=O)[C@@H]1CCCC[C@H]1C(=O)O (mixture of isomers) [Compound 36, N-[(+)trans-2-carboxy-cyclohexylcarbonyl]-L-tryptophan methylamide] | 
15 | 8.52 |  | CC(C)CC(CC(=O)NO)C(=O)N[C@@H](Cc1c[nH]c2ccccc12)C(=O)N[C@@H](C)c1ccccc1 (single isomer, unassigned) [Compound 21A] | inhibition of protease activity of chronic wound fluid [5]: 94%
16 | < 5.00 |  | CC(C)CC(CC(=O)O)C(=O)N[C@@H](Cc1c[nH]c2ccccc12)C(=O)NCC(=O)O (single isomer, unassigned) [Compound 34A, N-[N-(2-Isobutyl-3-carboxypropanoyl)-L-tryptophanyl]glycine] | 
17 | < 5.00 |  | CC(C)CC(CC(=O)O)C(=O)N[C@@H](Cc1c[nH]c2ccccc12)C(=O)NCC(=O)O (single isomer, unassigned) [Compound 34B, N-[N-(2-Isobutyl-3-carboxypropanoyl)-L-tryptophanyl]glycine] | 
18 | 6.70 |  | CC(C)CC(CC(=O)NO)C(=O)N[C@@H](Cc1c[nH]c2ccccc12)C(=O)O (stereo partly drawn) [Compound 31A, N-[2-Isobutyl-3-(N'-hydroxyamidocarbonyl)-propanoyl]-L-tryptophan] | 
19 | < 5.00 |  | CC(C)CC(CC(=O)O)C(=O)N[C@@H](Cc1c[nH]c2ccccc12)C(=O)NCCCCCCN (stereo partly drawn) [Compound 32A, N-(D,L-2-Isobutyl-3-carboxypropanoyl)-L-tryptophan (6-aminohexyl-1)amide] | 
20 |  | 7.49 | CC(C)C[C@H](CC(=O)O)C(=O)N[C@@H](Cc1c[nH]c2ccccc12)C(=O)NCCN1CCOCC1 [Compound 51] | 
